Results: patent US5773573A, “HIV peptides” (priority 1994, dated 1998)
Residues, ends and D or L forms follow the SMILES beside them.

Experiments:
[1] = test system: autologous PHA T cell blasts; assay: Cytotoxicity Assay (51Cr release) of peptide-induced short-term PBMC cultures against autologous targets; type: cell-based, human; conditions: for autoreactive response (autocytotoxic, 51Cr release): peptide stimulant 100 ng/ml 4-8 hours
Protocol: (§1) Peripheral Blood Mononuclear Cells (PBMC) were isolated from 8 HIV seronegative individuals who volunteered as donors for the study. […] PBMC (10^6 /ml) from the each of the donors were incubated in the presence of VHP1 or control peptide at 100 ng/ml for 4-8 hours to produce Effector Cells. Irradiated autologous PBMC without VHP1 stimulation served as controls.
(§2) VHP1 induced short-term cultures of autoreactive T cells (Effector Cells) were assayed for cytotoxic activity against autologous PHA T cell blasts stimulated with 5 μg/ml PHA for 4-5 days at a concentration of 10^4 cells/well in the absence of either control or VHP1 peptide (Target Cells). 1-2×10^6 Target Cells were labeled with […] of ^51 Cr in 0.3 ml of medium for 1 hour at 37° C. Target cells were washed 3× in medium, diluted to 10^5 or 10^4 cells/ml and […] of cell suspension added to each well of a V-bottomed 96-well microtitre plate. Effector Cells were added to the Target Cells at Effector:Target (E:T) ratios from 50:1 to 6.25:1. Cultures were incubated for 4 hours at 37° C. and supernatants were harvested and counted for ^51 Cr release. Percent cytotoxicity is calculated using the formula : […] (experimental release-spontaneous release)/(maximum release-spontaneous release). Spontaneous release and maximum release were determined by incubating target cells in medium or 1.0% Triton ×-100 respectively. Results where calculated as means ± Standard Deviations (SD) of triplicate cultures and a positive result was scored above 20% specific lysis. The cytotoxicity assay was repeated for allogeneic Target cells from donors (Target-1, Target-2 and Target-3) and the percent specific lysis scored at an Effector:Target ratio of 10:1.

[2] = test system: allogeneic PHA activated T cell Targets; assay: Cytotoxicity Assay (51Cr release) of VHP1-induced Effectors against allogeneic targets; type: cell-based, human
Protocol: as §1, §2
To establish the MHC specificity of the cytotoxic cells stimulated by VHP1, further Cytotoxicity Assays with allogeneic PHA activated T cell Targets with different MHC phenotypes were then performed. The Effectors were derived from short term cultures of PBMC from donors of either MHC B8 or B35 (trigger+) incubated with VHP1 for 4-8 hours. The Target Cells were from donors with either B8 B35 (trigger+) or B27(Trigger-) MHC phenotype. Target PBMC incubated with radioactive ^51 Cr for one hour before being mixed with Effectors. Effector Cells were mixed with radiolabelled Target Cells and incubated for 4 hours and lysis was measured by release of radioactive ^51 Cr.
The measurement of percent specific lysis by ^51 Cr release at an Effector to Target Ratio of 10:1.

[3] = short term cultures of PBMC from donors positive for B8 or B35 (trigger+)

SMILES	autoreactive response (autocytotoxic, 51Cr release) ([1]; PBMC of donor eight (Trigger+))	autoreactive response (autocytotoxic, 51Cr release) ([1]; PBMC of donor five (Trigger+))	autoreactive response (autocytotoxic, 51Cr release) ([1]; PBMC of donor four (Trigger-))	autoreactive response (autocytotoxic, 51Cr release) ([1]; PBMC of donor nine (Trigger-))	autoreactive response (autocytotoxic, 51Cr release) ([1]; PBMC of donor one (Trigger-))	autoreactive response (autocytotoxic, 51Cr release) ([1]; PBMC of donor seven (Trigger+))	autoreactive response (autocytotoxic, 51Cr release) ([1]; PBMC of donor six (Trigger+))	autoreactive response (autocytotoxic, 51Cr release) ([1]; PBMC of donor two (Trigger-))	autocytotoxic responses against activated autologous T cell targets [1, 3]	percent specific lysis by 51Cr release ([2]; VHP1-induced Effectors JMC-B8, Target1-B8, Effector to Target Ratio 10:1) [%]	percent specific lysis by 51Cr release ([2]; VHP1-induced Effectors JMC-B8, Target2-B35, Effector to Target Ratio 10:1) [%]	percent specific lysis by 51Cr release ([2]; VHP1-induced Effectors JMC-B8, Target3-B27, Effector to Target Ratio 10:1) [%]	percent specific lysis by 51Cr release ([2]; VHP1-induced Effectors SW-B35, Target1-B8, Effector to Target Ratio 10:1) [%]	percent specific lysis by 51Cr release ([2]; VHP1-induced Effectors SW-B35, Target2-B35, Effector to Target Ratio 10:1) [%]	percent specific lysis by 51Cr release ([2]; VHP1-induced Effectors SW-B35, Target3-B27, Effector to Target Ratio 10:1) [%]	percent specific lysis by 51Cr release ([2]; VHP1-induced Effectors WW-B35, Target1-B8, Effector to Target Ratio 10:1) [%]	percent specific lysis by 51Cr release ([2]; VHP1-induced Effectors WW-B35, Target2-B35, Effector to Target Ratio 10:1) [%]	percent specific lysis by 51Cr release ([2]; VHP1-induced Effectors WW-B35, Target3-B27, Effector to Target Ratio 10:1) [%]	autocytotoxic responses against activated autologous T cell targets ([1]; short term cultures of PBMC from donors negative for B8 or B35 (trigger-))
CC(C)C[C@H](N)C(=O)N[C@@H](CCC(=O)O)C(=O)N[C@@H](CC(=O)O)C(=O)N[C@@H](CCCNC(=N)N)C(=O)N[C@@H](CCCNC(=N)N)C(=O)N[C@@H](C)C(=O)N[C@@H](C)C(=O)N[C@H](C(=O)N[C@@H](CC(=O)O)C(=O)N[C@H](C(=O)N[C@H](C(=O)N[C@@H](CS)C(=O)N[C@@H](CCCNC(=N)N)C(=O)N[C@@H](C)C(=O)O)C(C)C)[C@@H](C)O)C(C)C [Control, NH2 LeuGluAspArgArgAlaAlaValAspThrValCysArgAlaCOOH] (H-LEDRRAAVDTVCRA-OH)	- (a positive result was scored above 20% specific lysis)	- (a positive result was scored above 20% specific lysis)	- (a positive result was scored above 20% specific lysis)	- (a positive result was scored above 20% specific lysis)	- (a positive result was scored above 20% specific lysis)	- (a positive result was scored above 20% specific lysis)	- (a positive result was scored above 20% specific lysis)	- (a positive result was scored above 20% specific lysis)	did not produce significant levels										
CC(C)[C@H](NC(=O)[C@H](CCCNC(=N)N)NC(=O)[C@H](CCCNC(=N)N)NC(=O)[C@H](CCCCN)NC(=O)[C@H](C)NC(=O)[C@H](CCCCN)NC(=O)[C@@H](N)[C@@H](C)O)C(=O)N[C@H](C(=O)N[C@@H](CCC(=O)O)C(=O)N[C@@H](CCCNC(=N)N)C(=O)N[C@@H](CCC(=O)O)C(=O)N[C@@H](CCCCN)C(=O)N[C@@H](CCCNC(=N)N)C(=O)O)C(C)C [VHP1, NH2 ThrLysAlaLysArgArgValValGluArgGluLysArgCOOH] (H-TKAKRRVVEREKR-OH)	+ (a positive result was scored above 20% specific lysis)	+ (a positive result was scored above 20% specific lysis)	- (a positive result was scored above 20% specific lysis)	- (a positive result was scored above 20% specific lysis)	- (a positive result was scored above 20% specific lysis)	+ (a positive result was scored above 20% specific lysis)	+ (a positive result was scored above 20% specific lysis)	- (a positive result was scored above 20% specific lysis)	significant autocytoxic responses	30	30	7	9	10	2	30	32	14	did not produce significant levels
